According to patent US8110570B2, “Modulators of acetyl-coenzyme A carboxylase and methods of use thereof” (Cropsolution, Inc., priority 2008, dated 2012):
pIC50: −log10 of the molar value.

Key:
hACC1 = target: T1, hACC1 (Homo sapiens, UniProt Q13085); experiment: [14C]bicarbonate incorporation assay, overall ACC activity; assay type: biochemical; conditions: recombinant hACC1, overall ACC activity
T1 construct: PCR primers were designed for full-length hACC1 and hACC2 using GenBank submissions AY237919 and AJ575592, respectively; His tag (C); made in house; host or cells: baculovirus, Sf9 insect cells
Summary of the method: (§1)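 His-tagged full-length hACC1 or hACC2 (residues 1-148 deleted, Met-Gly added), expressed in sf9 cells with biotin and purified, were assayed by [14C]bicarbonate incorporation into acetyl-CoA. Reactions at pH 7.4 with 2 mM acetyl-CoA, 12 mM NaHCO3 and 1% DMSO were started with 2 mM ATP and run 10 min at 37° C. Acid-stable label was counted and IC50 obtained from dose-response fits.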

hACC2 = target: T2, hACC2 (Homo sapiens, UniProt O00763); experiment: as above; assay type: biochemical; conditions: recombinant hACC2, overall ACC activity
T2 construct: delete amino acids 1-148 and add Met-Gly in front of Lys149 in the final product; His tag (C); made in house; host or cells: baculovirus, Sf9 insect cells
Summary of the method: as §1

[1] = system: A2780 human ovary cancer cells; experiment: MTT Cell Proliferation Assay; assay type: cell-based; conditions: 72 hours, read-out: Percent of Control A2780
Method: (§2) The anti-proliferative activity of test compounds against human tumor cell lines is evaluated in vitro using the ATCC's MTT Cell Proliferation Assay (Catalog No. 30-100K). Cell lines are grown using media, serum, and culture conditions recommended by the ATCC. Stock cultures are allowed to grow to 70-80% confluence. Cells are seeded into 96-well culture plates at a predetermined density on day 0 in complete medium (0.1 mL). Plates are placed in a humidified incubator at 37° C. with 5% CO2 and 95% HEPA filtered room air for 24 hours. At this point compound (0.1 mL of 2× stock (in media)) is added to the indicated wells and the plates are returned to the incubator for 72 hours. Cell proliferation is measured by addition of MTT reagent to each well and incubated for an additional 4 hours, followed by addition of cell lysis/MTT solublization reagent and incubating overnight. […] Results are expressed as percent of control cells versus compound concentration. Compounds of the present invention, and salts thereof, were evaluated for anti-proliferative activity as described above.

[2] = system: HCT-116 human colon cancer cells; experiment: MTT Cell Proliferation Assay; assay type: cell-based; conditions: 72 hours, read-out: Percent of Control HCT-116
Method: as §2

[3] = system: MDA-MB-231 human breast cancer cells; experiment: MTT Cell Proliferation Assay; assay type: cell-based; conditions: 72 hours, read-out: Percent of Control MDA-MB-231
Method: as §2

[4] = system: PC-3 human prostate cancer cells; experiment: MTT Cell Proliferation Assay; assay type: cell-based; conditions: 72 hours, read-out: Percent of Control PC-3
Method: as §2

[5] = system: hepatic fatty acid synthesis; experiment: In vivo inhibition of rat hepatic fatty acid synthesis; conditions: oral
Method: In vivo measurement of fatty acid synthesis inhibition in mammals. Incorporation of [2-^14C]acetate into saponifiable lipids in the livers of mammals (e.g. Sprague Dawley rats, Charles River Laboratories, Boston, Mass. or Harlan Laboratories, Indianapolis, Ind.) can be measured as described previously (Harwood Jr. H. J. et al., J Biol Chem, 39: 37099-37111 (2003)). For example, animals given food and water ad libitum are treated orally at volume of 1.0 ml/200 g of body weight with either an aqueous solution containing 0.5% methyl cellulose (vehicle) or an aqueous solution containing 0.5% methyl cellulose containing test compound. One hour after compound administration, animals receive an intraperitoneal injection of [2-^14C]acetate (0.02 mL, 1 mCi/mL; 50 mCi/mmol. One hour after radiolabel administration, animals are sacrificed by CO2 asphyxiation, and two liver pieces (about 0.75 g each) are removed and saponified at 70° C. for 120 min in 2.5 M NaOH (1.5 mL). After saponification, absolute EtOH (2.5 mL) is added to each sample and the solutions are mixed and allowed to stand overnight. Petroleum ether (4.8 mL) is then added to each sample, and after vigorous shaking (2 min) the mixtures are centrifuged at 1000×g (5 min). The petroleum ether layer containing the nonsaponifiable lipids is removed and discarded. The remaining aqueous layer is acidified (pH<2) by addition of 12 M HCl (0.6 mL) and extracted two times with petroleum ether (4.8 mL). The pooled organic fractions are transferred to liquid scintillation vials, dried under nitrogen, dissolved in Aquasol scintillation fluid (7 ml), and radioactivity is quantified by liquid scintillation counting. Inhibition of fatty acid synthesis by the test compound is expressed as a relative percent inhibition of measured incorporation of [2-^14C]acetate into saponifiable lipids during the interval between [2-^14C]acetate injection and CO2 asphyxiation in animals receiving test compound, compared to control animals receiving only the vehicle.
Compounds of the present invention, and salts thereof, were evaluated for inhibition of fatty acid synthesis as described above.

hACC1-CT = target: T3, hACC1-CT (Homo sapiens, UniProt Q13085); experiment: acetyl-CoA/malonyl-CoA isotope exchange assay, CT half-reaction; assay type: biochemical
T3 construct: PCR primers were designed for full-length hACC1 and hACC2 using GenBank submissions AY237919 and AJ575592, respectively; His tag (C); made in house; host or cells: baculovirus, Sf9 insect cells
Method: Overall ACC activity is comprised of two half-reactions, the BC reaction (the ATP-dependent carboxylation of biotin) and the CT reaction (the transfer of the carboxyl group from biotin to acetyl-CoA to form malonyl-CoA). Thus, it is of interest to localize the site of action of ACC inhibitors. To this end, representative compounds are tested in an acetyl-CoA/malonyl-CoA isotope exchange reaction which specifically measures the CT-half reaction. This assay is performed with slight modifications of published procedures (Gregolin et al., J Biol Chem, 1968, 243:4227-4235; Rendina et al., J Agric Food Chem, 1990, 38:1282-1287). Briefly, the reaction mixture (50 μL) contained 50 mM Hepes (pH 7.4), 20 mM K-citrate, 1.5 mM MgSO4, 4 mM malonyl-CoA, 1.67 mM acetyl-CoA, 0.34 mM [^14C]acetyl-CoA (about 60 mCi/mmol), 0.75 mg/mL BSA, and 1% (v/v) DMSO with or without inhibitor. Reactions are initiated by the addition of hACCl (0.3 μg) or hACC2 (0.15 μg) enzyme and incubated at 37° C. for 10 min. Reactions are stopped by addition of a 0.2M sodium arsenate solution containing 1U of phosphotransacetylase (13.5 μL) and incubation at room temperature for 30 min. […] The samples are then resuspended in water (200 μL), added to scintillation cocktail (3 mL), and counted in a scintillation counter to quantify radiolabel incorporated into malonyl-CoA. […]

[6] = target: uACC (Ustilago maydis ACC) (Ustilago maydis, UniProt A0A0D1DYD5); experiment: [14C]bicarbonate incorporation assay, overall ACC activity; assay type: biochemical
HepG2 cells = experiment: Fatty acid synthesis assay, 14C-acetate incorporation into phospholipids; assay type: cell-based; conditions: Homo sapiens, 24 h, read-out: inhibition of radiolabel incorporation into phospholipids
Excerpt: (§3) The in vivo ACC inhibitory activity of compounds in this invention can be confirmed in cultured cells using standard procedures that are well known to those skilled in the art. For example, since ACC catalyzes the first committed step in fatty acid biosynthesis, the in vivo activity of compounds can be confirmed by measuring their ability to prevent the formation of radiolabeled fatty acids from radiolabeled acetate in cultured human hepatoma cells (HepG2). In addition, since the malonyl-CoA produced by ACC inhibits fatty acid oxidation, the in vivo ACC inhibitory activity of compounds can be further confirmed by measuring the stimulation of fatty acid oxidation in cultured mouse myoblast cells (C2C12).
Fatty acid synthesis assays are performed with slight modifications to published procedures (Beckers et al., Cancer Res, 2007, 67: 8180-8187; Wang, J Lipid Res., 2006, 47:2028-41). Briefly, HepG2 cells are grown in Dulbecco's modified eagles medium containing 10% fetal calf serum in 6-well culture plates. Cells are treated for 24 h with test compounds added as DMSO stock solutions to a final DMSO concentration of 0.5% (v/v). After test compound incubation, ^14C—[2]-acetate is added (3 μCi/6 well plate) and cells are further incubated for 4 hrs. Cells are then harvested in 40% methanol and assayed for total protein. Total lipids are extracted with chloroform:methanol (2:1) and ^14C-radioactivity is quantified in the aqueous and organic phases. Total lipids in the organic phase are separated by thin-layer chromatography (TLC, silica gel 60A) using hexane:ether:acetic acid (90:30:1) as the mobile phase. Radioactivity distribution of lipid classes on TLC plates is quantified by phosphorimaging (Molecular Dynamics Storm 820). Compound 6 inhibited radiolabel incorporation into phospholipids 32% and 14% at 10 μM and 1 μM, respectively, while Compound 2 inhibited radiolabel incorporation into phospholipids 93% and 42% at 10 μM and 1 μM, respectively.

C2C12 cells = experiment: Fatty acid oxidation assay, [1-14C]palmitate to CO2; assay type: cell-based, mouse; conditions: compared to untreated controls
Excerpt: as §3
Fatty acid oxidation assays are performed essentially as described (Beckers et al., Cancer Res, 2007, 67: 8180-8187). Briefly, C2C12 cells are plated at 600,000 cells/T25 flask. The next day, media is changed and the DMSO with or without test compound is added to a final concentration of 0.5% (v/v). After 1 h at 37° C. in atmosphere of 5% CO2, freshly made 2 uCi of FA-free bovine serum albumin-[1-^14C] palmitate complex is added to each flask. The flasks are then sealed with a stopper and incubated 6 h at 37° C. after which evolved CO2 is liberated by injection of perchloric acid to final concentration of 5% and captured by incubating the flasks overnight in the presence of filter paper soaked with 5% KOH. The filters are then air-dried and incubated with scintillation cocktail overnight for equilibrium. Radioactivity is quantified by scintillation counting.

T2 sequence (O00763 149-2458 limits assumed): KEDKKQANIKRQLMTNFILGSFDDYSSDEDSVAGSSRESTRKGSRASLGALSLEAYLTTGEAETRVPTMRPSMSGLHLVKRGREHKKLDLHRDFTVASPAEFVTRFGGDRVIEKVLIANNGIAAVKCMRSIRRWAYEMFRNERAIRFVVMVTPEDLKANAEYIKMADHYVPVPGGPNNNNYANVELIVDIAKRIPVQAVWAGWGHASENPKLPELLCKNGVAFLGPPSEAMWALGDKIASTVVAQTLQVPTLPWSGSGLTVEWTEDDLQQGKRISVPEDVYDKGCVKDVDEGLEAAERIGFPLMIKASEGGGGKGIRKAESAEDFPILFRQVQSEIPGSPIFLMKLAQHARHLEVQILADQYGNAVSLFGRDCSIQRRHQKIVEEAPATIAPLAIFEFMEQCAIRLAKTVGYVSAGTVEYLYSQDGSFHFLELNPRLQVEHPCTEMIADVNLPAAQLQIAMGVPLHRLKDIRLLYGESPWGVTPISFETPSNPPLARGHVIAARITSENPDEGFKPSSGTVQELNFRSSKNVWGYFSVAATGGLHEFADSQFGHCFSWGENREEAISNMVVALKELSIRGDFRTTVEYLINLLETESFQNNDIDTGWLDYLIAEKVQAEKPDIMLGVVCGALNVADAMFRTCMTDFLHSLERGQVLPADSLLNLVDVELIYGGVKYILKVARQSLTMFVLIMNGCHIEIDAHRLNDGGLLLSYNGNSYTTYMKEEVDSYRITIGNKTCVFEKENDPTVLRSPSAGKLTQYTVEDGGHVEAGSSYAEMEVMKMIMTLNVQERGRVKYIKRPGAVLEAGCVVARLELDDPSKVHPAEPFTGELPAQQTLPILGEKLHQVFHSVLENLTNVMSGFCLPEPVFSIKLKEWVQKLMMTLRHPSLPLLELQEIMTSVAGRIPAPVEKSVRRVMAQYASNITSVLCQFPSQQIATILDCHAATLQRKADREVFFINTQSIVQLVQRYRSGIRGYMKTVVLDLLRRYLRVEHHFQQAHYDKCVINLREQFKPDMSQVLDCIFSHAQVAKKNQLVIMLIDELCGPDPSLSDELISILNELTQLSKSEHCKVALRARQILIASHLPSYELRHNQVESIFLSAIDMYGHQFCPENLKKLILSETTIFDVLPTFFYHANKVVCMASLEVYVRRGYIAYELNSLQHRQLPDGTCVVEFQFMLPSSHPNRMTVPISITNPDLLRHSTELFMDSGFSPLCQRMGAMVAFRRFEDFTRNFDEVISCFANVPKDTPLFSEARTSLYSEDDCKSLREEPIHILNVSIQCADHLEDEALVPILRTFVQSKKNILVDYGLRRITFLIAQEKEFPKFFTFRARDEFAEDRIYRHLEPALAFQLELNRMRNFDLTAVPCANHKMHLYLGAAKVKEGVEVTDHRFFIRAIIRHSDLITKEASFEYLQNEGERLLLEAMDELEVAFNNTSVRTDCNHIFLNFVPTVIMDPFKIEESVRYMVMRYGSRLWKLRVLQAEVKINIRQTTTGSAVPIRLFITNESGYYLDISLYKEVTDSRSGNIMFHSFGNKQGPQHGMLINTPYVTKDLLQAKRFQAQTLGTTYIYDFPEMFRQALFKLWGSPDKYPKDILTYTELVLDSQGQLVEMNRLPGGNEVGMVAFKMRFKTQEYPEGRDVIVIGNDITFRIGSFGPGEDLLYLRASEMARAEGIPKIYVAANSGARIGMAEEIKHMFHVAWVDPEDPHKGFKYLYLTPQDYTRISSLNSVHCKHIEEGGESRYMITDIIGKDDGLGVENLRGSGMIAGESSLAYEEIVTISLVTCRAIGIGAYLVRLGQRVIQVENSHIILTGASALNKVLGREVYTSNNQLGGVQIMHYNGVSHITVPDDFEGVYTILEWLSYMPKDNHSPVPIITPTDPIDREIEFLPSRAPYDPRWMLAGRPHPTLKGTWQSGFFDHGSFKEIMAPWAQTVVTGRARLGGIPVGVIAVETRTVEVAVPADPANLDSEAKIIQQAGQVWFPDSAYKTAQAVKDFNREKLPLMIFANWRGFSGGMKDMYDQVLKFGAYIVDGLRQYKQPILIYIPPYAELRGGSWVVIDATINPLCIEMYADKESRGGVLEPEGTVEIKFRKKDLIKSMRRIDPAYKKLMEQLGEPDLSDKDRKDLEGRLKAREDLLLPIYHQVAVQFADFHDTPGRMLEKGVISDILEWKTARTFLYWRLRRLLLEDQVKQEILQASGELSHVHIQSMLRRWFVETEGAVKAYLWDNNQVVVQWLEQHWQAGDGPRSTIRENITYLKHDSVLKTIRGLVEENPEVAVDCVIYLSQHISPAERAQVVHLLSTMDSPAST
Sequence of uACC (Ustilago maydis ACC) (A0A0D1DYD5 entry or part of it): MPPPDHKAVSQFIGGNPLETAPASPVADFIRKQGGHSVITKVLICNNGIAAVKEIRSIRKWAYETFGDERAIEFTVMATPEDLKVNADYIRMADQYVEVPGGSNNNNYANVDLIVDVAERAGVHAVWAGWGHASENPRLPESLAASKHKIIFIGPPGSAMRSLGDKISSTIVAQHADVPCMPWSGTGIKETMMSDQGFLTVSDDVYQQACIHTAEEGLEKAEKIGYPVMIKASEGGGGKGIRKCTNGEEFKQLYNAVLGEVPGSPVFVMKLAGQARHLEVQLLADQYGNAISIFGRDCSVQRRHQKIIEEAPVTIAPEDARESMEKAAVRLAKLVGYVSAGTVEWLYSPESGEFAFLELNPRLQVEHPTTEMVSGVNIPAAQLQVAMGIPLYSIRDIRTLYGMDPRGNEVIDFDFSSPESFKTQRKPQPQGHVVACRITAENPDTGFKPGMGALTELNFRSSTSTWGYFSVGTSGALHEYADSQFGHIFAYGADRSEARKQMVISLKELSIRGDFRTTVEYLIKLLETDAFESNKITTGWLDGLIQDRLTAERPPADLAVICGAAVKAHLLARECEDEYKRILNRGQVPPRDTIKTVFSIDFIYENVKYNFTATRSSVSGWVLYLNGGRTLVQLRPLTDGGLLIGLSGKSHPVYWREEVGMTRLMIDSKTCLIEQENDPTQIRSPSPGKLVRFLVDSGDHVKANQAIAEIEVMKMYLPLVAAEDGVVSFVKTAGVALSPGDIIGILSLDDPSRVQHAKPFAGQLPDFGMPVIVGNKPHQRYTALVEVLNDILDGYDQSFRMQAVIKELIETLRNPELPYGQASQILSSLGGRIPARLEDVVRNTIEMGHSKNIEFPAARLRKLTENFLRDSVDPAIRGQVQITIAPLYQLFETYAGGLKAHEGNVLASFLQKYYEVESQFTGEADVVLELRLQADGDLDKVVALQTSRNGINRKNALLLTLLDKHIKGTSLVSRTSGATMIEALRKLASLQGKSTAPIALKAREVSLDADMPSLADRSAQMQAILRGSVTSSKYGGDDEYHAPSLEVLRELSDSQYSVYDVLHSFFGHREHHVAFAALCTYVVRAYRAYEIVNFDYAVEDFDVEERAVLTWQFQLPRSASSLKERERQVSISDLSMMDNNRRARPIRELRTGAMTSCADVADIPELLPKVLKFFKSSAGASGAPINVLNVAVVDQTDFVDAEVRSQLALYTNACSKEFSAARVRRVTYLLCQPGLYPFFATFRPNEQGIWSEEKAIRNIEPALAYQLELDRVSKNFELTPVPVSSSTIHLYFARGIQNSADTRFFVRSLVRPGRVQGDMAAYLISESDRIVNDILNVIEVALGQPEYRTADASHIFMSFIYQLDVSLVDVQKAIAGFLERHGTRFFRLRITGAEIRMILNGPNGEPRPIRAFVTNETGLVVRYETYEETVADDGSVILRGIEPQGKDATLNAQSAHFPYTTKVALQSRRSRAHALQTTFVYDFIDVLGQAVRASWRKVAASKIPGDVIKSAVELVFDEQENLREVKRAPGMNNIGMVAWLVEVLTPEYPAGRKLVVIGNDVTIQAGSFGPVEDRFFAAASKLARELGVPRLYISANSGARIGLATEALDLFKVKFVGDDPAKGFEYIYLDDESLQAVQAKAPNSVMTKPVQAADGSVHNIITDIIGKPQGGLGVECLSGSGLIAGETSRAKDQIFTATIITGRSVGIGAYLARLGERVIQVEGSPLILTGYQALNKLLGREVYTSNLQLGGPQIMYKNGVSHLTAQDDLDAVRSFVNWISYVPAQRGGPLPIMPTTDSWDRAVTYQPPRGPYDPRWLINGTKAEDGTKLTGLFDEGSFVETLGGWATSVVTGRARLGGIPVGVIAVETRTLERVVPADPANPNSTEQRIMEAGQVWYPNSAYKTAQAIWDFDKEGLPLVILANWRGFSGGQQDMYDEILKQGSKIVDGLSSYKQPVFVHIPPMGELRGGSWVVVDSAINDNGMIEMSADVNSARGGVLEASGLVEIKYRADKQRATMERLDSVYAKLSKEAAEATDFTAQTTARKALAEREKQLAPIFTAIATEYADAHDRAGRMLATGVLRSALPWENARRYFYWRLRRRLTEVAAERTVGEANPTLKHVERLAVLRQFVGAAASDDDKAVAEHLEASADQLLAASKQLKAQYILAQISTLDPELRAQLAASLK

Row | SMILES | pIC50 (hACC1) | pIC50 (hACC2) | activity at 3.3 µM [1] | activity at 10 µM [1] | activity at 3.3 µM [2] | activity at 10 µM [2] | activity at 3.3 µM [3] | activity at 10 µM [3] | activity at 3.3 µM [4] | activity at 10 µM [4] | Percent Inhibition at 10 mg/Kg [5] | pIC50 (hACC1-CT) | pIC50 [6] | Percent Inhibition at 30 mg/Kg [5] | inhibition at 1 µM (HepG2 cells; HepG2, 1 μM) | inhibition at 10 µM (HepG2 cells; HepG2, 10 μM) | stimulation of fatty acid oxidation (C2C12 cells; C2C12, 0.2 μM) | stimulation of fatty acid oxidation (C2C12 cells; C2C12, 2 μM)
1 | COc1cc(C(=O)N2CCC3(CC2)NC(=O)c2cc(N4CCOCC4)ccc2O3)nc2c(OC)cccc12 [Compound 196] | 6.70 | 7.68 | 81.6% | 56.4% | 63.6% | 58.5% | 73.7% | 56.1% | 50.7% | 39% | 67% |  |  |  |  |  |  | 
2 | COc1ccc(OC)c2[nH]c(C(=O)N3CCC4(CC3)NC(=O)c3ccccc3O4)cc12 [Compound 7, 1′-[(4,7-Dimethoxy-1H-indol-2-yl)carbonyl]spiro[2H-1,3-benzoxazin-2,4′-piperidin]-4-(3H)-one] | 5.96 | 6.07 |  |  |  |  |  |  |  |  |  | 5.92 | 4.70 |  |  |  |  | 
3 | COc1cc(C(=O)N2CCC3(CC2)NC(=O)c2cc(OC(F)(F)F)ccc2O3)nc2c(OC)cccc12 [Compound 172] | 8.15 |  | 97.4% | 65.5% | 61.4% | 41.6% | 54.1% | 29.5% | 63% | 55.7% | 5% |  |  |  |  |  |  | 
4 | COc1cc(C(=O)N2CCC3(CC2)NC(=O)c2cc(C(C)C)ccc2O3)nc2c(OC)cccc12 [Compound 186] | 8.70 | 8.70 | 59.5% | 52.1% | 53.6% | 41.8% | 74.2% | 39.2% | 48.9% | 33.2% | 55% |  |  | 78% |  |  |  | 
5 | Cc1c(C(=O)N2CCC3(CC2)NC(=O)c2ccccc2O3)[nH]c2ccc(F)cc12 [Compound 6, 1′-[(5-Fluoro-3-methyl-1H-indol-2-yl)carbonyl]spiro[2H-1,3-benzoxazin-2,4′-piperidin]-4-(3H)-one] | 5.64 | 5.70 |  |  |  |  |  |  |  |  |  |  | 4.40 |  | 14% | 32% | 260% | 299%
6 | CCOc1ccc2c(c1)C(=O)NC1(CCN(C(=O)c3[nH]c4c(OC)cccc4c3C)CC1)O2 [Compound 144] | 7.21 | 7.06 | 65% | 25.1% | 64.9% | 39.1% | 88.9% | 34.5% | 76.5% | 67.2% |  |  | 4.85 | 9% |  |  |  | 
